Data published in patent US9351971B2, “Substituted 2,2′-biphenazines for treating diseases” (Eutropics Pharmaceuticals, Inc., priority 2010, dated 2016).
Entries after “also recorded” stand apart in the source; their conditions may differ.

Tests used:
Mcl-1 = target: T1, Mcl-1 (Homo sapiens, UniProt Q07820); assay: Fluorescence polarization assay, Bim BH3 peptide binding to GST-Mcl-1
T1 construct: made in house; host or cells: E. coli
Description: A nineteen amino acid peptide, corresponding to the BH3 domain of Bim, with the sequence FITC-GGGIAQELRRIGDEFNAY (SEQ ID NO: 1) was labeled with the tluorophore FITC according to the manufacturer's instructions (Molecular Probes, Eugene, Oreg.). This sequence was identified as being able to bind to purified Bcl-xL protein (Sattler et al. (1997) Science 275(5302): 983-86) and to have biological activity in cells (Holinger et al. J. Biol. Chem. 274; 13298-1330).
In addition, recombinant GST -Mcl-1 and GST-Bcl-xL fusion proteins were generated in E.coli and purified using glutathione-sepharose beads using conventional techniques known to those skilled in the fields of biochemistry and molecular biology, (methods for preparation are described in Strategies for Protein Purification and Characterization, Marshak, D, Kadonga, J, Burgess R, Knuth, M, Brennan, W, Sue-Hwa, L, CSH press, Cold Spring Harbor, N.Y.). Binding of the recombinant proteins to the fluorescent Bim BH3 domain was confirmed by titration of increasing concentrations of the recombinant proteins against a constant amount of labeled Bim peptide (16.65 nM). Quantitation of binding was accomplished by FP assay with mP measurements made on the Analyst-GT reader (Molecular Devices, Sunnyvale, Calif.).
Further, the ability of compound A to disrupt the interaction between the fluorescent Bim BH3 peptide and the two fusion proteins was assessed using a fluorescence polarization assay. The Bim peptide (in solution at 4 nano-Molar) and either GST-Mcl-1 (in solution at 12.5 nM) or GST-Bcl-xL (in solution at 11.8 nM) were first combined together in phosphate buttered saline buffer, and then the compound solution in DMSO was added to final concentrations ranging from 10 μM to 0.1 nM). Normally the unbound Bim polypeptide results in polarization of 5 mP units. Upon binding of the GST-Bcl-xL and GST-Mcl-1 fusion protein, polarization increased to 100 mP units.
(§1) Experiments are performed using the fluorescence polarization assay as described in Example 2. Either Bcl-xL or Mcl-1 fusion proteins were titrated and maximum mp shift indicate binding concentrations for drug titration studies, as described in Example 2. Compound II-19, was titrated from 10 μM to 0.1 nM in 2 fold serial dilution into the peptide/protein solution. The IC50 for blocking each BH3 peptide from Mcl-1 are assessed using FP, as described in Example 2.
as §1, with “Either GST-Bcl-xL” for “Either Bcl-xL”, “or GST-Mcl-1” for “or Mcl-1”, “Compound II-20,” for “Compound II-19,”, “in 2-fold” for “in 2 fold”

[1] = test system: mitochondria in semi-permeabilized SUDHL-6 cells; assay: In situ mitochondrial assay (cytochrome c release), SUDHL-6; type: cell-based; settings: SUDHL-6 (DHL-6), Bax/Bak functional, 10 uM
Description: The on-target activity of compound II-19 was validated. Changes in mitochondrial integrity were observed utilizing anti-cytochrome c conjugated to Alcxa488 (BD). When the mitochondria are intact, they retain cytochrome c and have bright, punctate staining with the antibody whereas cells with compromised mitochondrial integrity will lose cytochrome c and will not stain with the antibody. This can be observed by microscopy as well as measured by a shift in fluorescence on the FL1 channel of a flow cytometer.
The selective response of mitochondria in semi-permeabilized cell lines to the compounds was observed. The assay was adapted from (Campos et al. (2006) Cytometry Part A. 69(A):515-523).
Suspension cell lines SUDHL10 and SUDHL6 were grown in RPMI, washed once in 1xPBS and re-suspended at a concentration of 2e6/ml in assay buffer with 0.0025% Digitonin. Assay buffer; 300 mM Trehalose, 10 mM HEPES-KOH pH 7.7, 80 mM KCl, 1 mM EGTA, 1 mM EDTA, 0.1% BSA, 5 mM Succinate. Cells are incubated with test and control compounds at 10^6 cells/treatment for 1 hour at room temperature. […] Cytochrome c loss was measured by microscopy. At least 100 cells per treatment were counted and scored as positive for cytochrome c loss if they lacked staining. In both methods DMSO was calculated as 0% cytochrome c loss and the Bim response for DHL6 was used to determine 100% cytochrome c loss.

SUDHL-10 cell line = assay: Cell viability MTS assay, SUDHL-10 (Bax/Bak deficient); type: cell-based, human
Experimental: (§2) The lymphoid derived cell lines DHL-6 and DHL-10 were obtained from Anthony Letai of the Dana Father Cancer Research Institute, Boston, Mass. The […] derived cell line NCP-H929 was obtained irons, the NIH/NCI cell repository. AML-3 cells were obtained from Dr. Michael Andreef (MD Anderson Cancer Center, Houston, Tex.). Cells were grown in RPMI 1640 medium (GIBCO-BRL) supplemented with Pen-strep-glutamine (Gibco 10378) and 5% fetal bovine serum.
(§3) Cells were expanded in tissue culture in appropriate media and then subcultured into 96-well plates at a seeding density of 20,000-40,000 cells per well, and cells were treated with one or more compounds that were titrated info appropriate medium with FCS. Cell lines were treated with compound A at concentrations ranging from 25 μM to 25 nM. The BH3-mimetic obatoclax (Nguyen M et al. (2007), Proc. Natl. Acad. Sci. USA 104:19512-19517) was also tested against the SUDHL-6, SUDHL-10, and NCI-H929 cell lines. Cells were treated for 48 hours and scored for viability using the MTS assay (Promega). Growth inhibition was indicated as a percentage of control cell growth. Growth was determined by measuring the A570 (control cells)—A570 (treated cells)/A570 (control cells). EC50 values were calculated using Graphpad Prizm software.

[2] = test system: SUDHL-6 lymphoid cell line; assay: Cell viability MTS assay, SUDHL-6; type: cell-based; settings: Homo sapiens, SU-DHL-6, 48 hours, read-out: EC50, cell killing in SUDHL-6
Experimental: as §2, §3

T1 sequence (Q07820 whole entry): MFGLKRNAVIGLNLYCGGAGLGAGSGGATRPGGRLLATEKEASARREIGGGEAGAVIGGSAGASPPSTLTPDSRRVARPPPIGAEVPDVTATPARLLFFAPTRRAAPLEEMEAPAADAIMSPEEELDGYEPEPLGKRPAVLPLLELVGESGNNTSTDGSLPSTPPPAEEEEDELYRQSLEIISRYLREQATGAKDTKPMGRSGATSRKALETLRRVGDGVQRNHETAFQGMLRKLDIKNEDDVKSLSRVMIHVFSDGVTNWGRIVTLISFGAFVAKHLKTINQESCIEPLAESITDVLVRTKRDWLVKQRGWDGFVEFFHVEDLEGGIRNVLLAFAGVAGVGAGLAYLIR

## COC(=O)c1ccc(O)c2nc3c(C=O)c(O)c(-c4c(O)c(C=O)c5nc6c(O)ccc(C(=O)OC)c6nc5c4O)c(O)c3nc12 [II-19, dimethyl 4,4′-diformyl-1,1′,3,3′,6,6′-hexahydroxy-[2,2′-biphenazine]-9,9′-dicarboxylate]
Mcl-1; fluorescence polarization, Bim-BH3-FITC peptide, GST-Mcl-1, read-out: IC50, inhibition of Bim-BH3 peptide binding to Mcl-1
  IC50: 7 nM
Mcl-1; ratio of FP IC50 values
  preference for inhibition of Mcl-1 vs. Bcl-xL: 2 fold
[1]
  cytochrome c release from mitochondria: causes release of cytochrome c; also recorded: direct activity
SUDHL-10 cell line; Homo sapiens, SU-DHL10, 48 hours, MTS assay, Bax/Bak deficient cell line, read-out: EC50, cell killing in SUDHL-10
  EC50: > 20000 nM
SUDHL-10 cell line; cell killing, FIG. 4d
  activity against the Bax/Bak deficient cell line SUDHL-10 (in words): absence of activity
[2]
  EC50: 3000 nM
